System: plants
Experiment: Test D pre-emergence, other plants of Tables D1 and D3
Assay type: in vivo
Conditions: preemergent, 20 DAA
Procedure, shortened: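 Damage was rated visually from 0 (none) to 100 (total), at 20 DAA for pre-emergence and 15 d for post-emergence. Plants grew from safener-treated seed in a glasshouse at 24/18° C. or 20/16° C. day/night, 65% humidity, watered twice daily.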

CN1C[C@H](c2nn(C)c3c(F)cccc23)[C@@H](C(=O)Nc2cccc(F)c2F)C1=O [Compound 2]
damage to plant (100=total damage to plant; 0=no damage to plant), ABUTH (rate 15): 0 | damage to plant (100=total damage to plant; 0=no damage to plant), ABUTH (rate 30): 0 | damage to plant (100=total damage to plant; 0=no damage to plant), ABUTH (rate 60): 0 | damage to plant (100=total damage to plant; 0=no damage to plant), ABUTH (rate 130): 0 | damage to plant (100=total damage to plant; 0=no damage to plant), ABUTH (rate 250): 0 | damage to plant (100=total damage to plant; 0=no damage to plant), ABUTH (rate 500): 20 | damage to plant (100=total damage to plant; 0=no damage to plant), AMARE (rate 15): 0 | damage to plant (100=total damage to plant; 0=no damage to plant), AMARE (rate 30): 0 | damage to plant (100=total damage to plant; 0=no damage to plant), AMARE (rate 60): 0 | damage to plant (100=total damage to plant; 0=no damage to plant), AMARE (rate 130): 0 | damage to plant (100=total damage to plant; 0=no damage to plant), AMARE (rate 250): 0 | damage to plant (100=total damage to plant; 0=no damage to plant), AMARE (rate 500): 0 | damage to plant (100=total damage to plant; 0=no damage to plant), BIDPI (rate 15): 0 | damage to plant (100=total damage to plant; 0=no damage to plant), BIDPI (rate 30): 0 | damage to plant (100=total damage to plant; 0=no damage to plant), BIDPI (rate 60): 0 | damage to plant (100=total damage to plant; 0=no damage to plant), BIDPI (rate 130): 0 | damage to plant (100=total damage to plant; 0=no damage to plant), BIDPI (rate 250): 0 | damage to plant (100=total damage to plant; 0=no damage to plant), BIDPI (rate 500): 0 | damage to plant (100=total damage to plant; 0=no damage to plant), BRAPL (rate 15): 0 | damage to plant (100=total damage to plant; 0=no damage to plant), BRAPL (rate 30): 70 | damage to plant (100=total damage to plant; 0=no damage to plant), BRAPL (rate 60): 80 | damage to plant (100=total damage to plant; 0=no damage to plant), BRAPL (rate 130): 80 | damage to plant (100=total damage to plant; 0=no damage to plant), BRAPL (rate 250): 90 | damage to plant (100=total damage to plant; 0=no damage to plant), BRAPL (rate 500): 90 | damage to plant (100=total damage to plant; 0=no damage to plant), CYPES (rate 15): 0 | damage to plant (100=total damage to plant; 0=no damage to plant), CYPES (rate 30): 0 | damage to plant (100=total damage to plant; 0=no damage to plant), CYPES (rate 60): 0 | damage to plant (100=total damage to plant; 0=no damage to plant), CYPES (rate 130): 0 | damage to plant (100=total damage to plant; 0=no damage to plant), CYPES (rate 250): 0 | damage to plant (100=total damage to plant; 0=no damage to plant), CYPES (rate 500): 0 | damage to plant (100=total damage to plant; 0=no damage to plant), DIGSA (rate 15): 0 | damage to plant (100=total damage to plant; 0=no damage to plant), DIGSA (rate 30): 90 | damage to plant (100=total damage to plant; 0=no damage to plant), DIGSA (rate 60): 90 | damage to plant (100=total damage to plant; 0=no damage to plant), DIGSA (rate 130): 90 | damage to plant (100=total damage to plant; 0=no damage to plant), DIGSA (rate 250): 90 | damage to plant (100=total damage to plant; 0=no damage to plant), DIGSA (rate 500): 90 | damage to plant (100=total damage to plant; 0=no damage to plant), ECHCG (rate 15): 50 | damage to plant (100=total damage to plant; 0=no damage to plant), ECHCG (rate 30): 50 | damage to plant (100=total damage to plant; 0=no damage to plant), ECHCG (rate 60): 80 | damage to plant (100=total damage to plant; 0=no damage to plant), ECHCG (rate 130): 90 | damage to plant (100=total damage to plant; 0=no damage to plant), ECHCG (rate 250): 90 | damage to plant (100=total damage to plant; 0=no damage to plant), ECHCG (rate 500): 90 | damage to plant (100=total damage to plant; 0=no damage to plant), ELEIN (rate 15): 0 | damage to plant (100=total damage to plant; 0=no damage to plant), ELEIN (rate 30): 0 | damage to plant (100=total damage to plant; 0=no damage to plant), ELEIN (rate 60): 0 | damage to plant (100=total damage to plant; 0=no damage to plant), ELEIN (rate 130): 0 | damage to plant (100=total damage to plant; 0=no damage to plant), ELEIN (rate 250): 0 | damage to plant (100=total damage to plant; 0=no damage to plant), ELEIN (rate 500): 0 | damage to plant (100=total damage to plant; 0=no damage to plant), EPHHL (rate 15): 0 | damage to plant (100=total damage to plant; 0=no damage to plant), EPHHL (rate 30): 0 | damage to plant (100=total damage to plant; 0=no damage to plant), EPHHL (rate 60): 0 | damage to plant (100=total damage to plant; 0=no damage to plant), EPHHL (rate 130): 0 | damage to plant (100=total damage to plant; 0=no damage to plant), EPHHL (rate 250): 0 | damage to plant (100=total damage to plant; 0=no damage to plant), EPHHL (rate 500): 10 | damage to plant (100=total damage to plant; 0=no damage to plant), GLXMA (rate 15): 0 | damage to plant (100=total damage to plant; 0=no damage to plant), GLXMA (rate 30): 0 | damage to plant (100=total damage to plant; 0=no damage to plant), GLXMA (rate 60): 0 | damage to plant (100=total damage to plant; 0=no damage to plant), GLXMA (rate 130): 0 | damage to plant (100=total damage to plant; 0=no damage to plant), GLXMA (rate 250): 0 | damage to plant (100=total damage to plant; 0=no damage to plant), GLXMA (rate 500): 0 | damage to plant (100=total damage to plant; 0=no damage to plant), IPOHE (rate 15): 0 | damage to plant (100=total damage to plant; 0=no damage to plant), IPOHE (rate 30): 0 | damage to plant (100=total damage to plant; 0=no damage to plant), IPOHE (rate 60): 0 | damage to plant (100=total damage to plant; 0=no damage to plant), IPOHE (rate 130): 0 | damage to plant (100=total damage to plant; 0=no damage to plant), IPOHE (rate 250): 0 | damage to plant (100=total damage to plant; 0=no damage to plant), IPOHE (rate 500): 0 | damage to plant (100=total damage to plant; 0=no damage to plant), ORYSA (rate 15): 0 | damage to plant (100=total damage to plant; 0=no damage to plant), ORYSA (rate 30): 0 | damage to plant (100=total damage to plant; 0=no damage to plant), ORYSA (rate 60): 0 | damage to plant (100=total damage to plant; 0=no damage to plant), ORYSA (rate 130): 0 | damage to plant (100=total damage to plant; 0=no damage to plant), ORYSA (rate 250): 0 | damage to plant (100=total damage to plant; 0=no damage to plant), ORYSA (rate 500): 0 | damage to plant (100=total damage to plant; 0=no damage to plant), PANMI (rate 15): 0 | damage to plant (100=total damage to plant; 0=no damage to plant), PANMI (rate 30): 0 | damage to plant (100=total damage to plant; 0=no damage to plant), PANMI (rate 60): 0 | damage to plant (100=total damage to plant; 0=no damage to plant), PANMI (rate 130): 0 | damage to plant (100=total damage to plant; 0=no damage to plant), PANMI (rate 250): 0 | damage to plant (100=total damage to plant; 0=no damage to plant), PANMI (rate 500): 0 | damage to plant (100=total damage to plant; 0=no damage to plant), SETFA (rate 15): 0 | damage to plant (100=total damage to plant; 0=no damage to plant), SETFA (rate 30): 80 | damage to plant (100=total damage to plant; 0=no damage to plant), SETFA (rate 60): 80 | damage to plant (100=total damage to plant; 0=no damage to plant), SETFA (rate 130): 80 | damage to plant (100=total damage to plant; 0=no damage to plant), SETFA (rate 250): 80 | damage to plant (100=total damage to plant; 0=no damage to plant), SETFA (rate 500): 90 | damage to plant (100=total damage to plant; 0=no damage to plant), SIDSP (rate 15): 0 | damage to plant (100=total damage to plant; 0=no damage to plant), SIDSP (rate 30): 0 | damage to plant (100=total damage to plant; 0=no damage to plant), SIDSP (rate 60): 0 | damage to plant (100=total damage to plant; 0=no damage to plant), SIDSP (rate 130): 0 | damage to plant (100=total damage to plant; 0=no damage to plant), SIDSP (rate 250): 0 | damage to plant (100=total damage to plant; 0=no damage to plant), SIDSP (rate 500): 0 | damage to plant (100=total damage to plant; 0=no damage to plant), SORVU (rate 15): 0 | damage to plant (100=total damage to plant; 0=no damage to plant), SORVU (rate 30): 0 | damage to plant (100=total damage to plant; 0=no damage to plant), SORVU (rate 60): 0
